Like-named read-outs stand apart in the source and are kept apart here.
Test: Plasma pharmacokinetics after single oral dose of Δ8-THCV in MCT oil (LC-MS/MS, non-compartmental analysis)
Assay type: in vivo, human
Parameters: Clast (last quantifiable concentration): unit not given here
Settings: for Clast (last quantifiable concentration) / tlast (time to last quantifiable concentration) / concentration at 0.5 h / concentration at 1 h / concentration at 2 h / concentration at 4 h / concentration at 6 h / concentration at 8 h / Tmax / AUC(0-t) / Cmax / MRT: plasma; for plasma concentration: Predose; for concentration at 0.5 h / concentration at 1 h / concentration at 2 h / concentration at 4 h / concentration at 6 h / concentration at 8 h / Tmax / AUC(0-t) / Cmax / MRT: human; for Tmax: read-out: tmax; for MRT: read-out: MRT (mean residence time)
How it was run: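 Healthy participants received single oral Δ8-THCV in MCT oil (50 mg/mL; 12.5-200 mg, or placebo) after a high-fat, high-calorie breakfast, with ≥1-week washout. Plasma (K2EDTA) sampled predose and 0.5-8 h post-dose, assayed by validated LC-MS/MS including metabolites; PK by non-compartmental analysis, sub-LLOQ values set to 0.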

[1] = 12.5 mg single oral Δ8-THCV in MCT oil, Mean (±SD)
[2] = 12.5 mg single oral Δ8-THCV in MCT oil, Median (Range)
[3] = 25 mg single oral Δ8-THCV in MCT oil, Mean (±SD)
[4] = 25 mg single oral Δ8-THCV in MCT oil, Median (Range)
[5] = 50 mg single oral Δ8-THCV in MCT oil, Mean (±SD)
[6] = 50 mg single oral Δ8-THCV in MCT oil, Median (Range)
[7] = 100 mg single oral Δ8-THCV in MCT oil, Mean (±SD)
[8] = 100 mg single oral Δ8-THCV in MCT oil, Median (Range)
[9] = 200 mg single oral Δ8-THCV in MCT oil, Mean (±SD)
[10] = 200 mg single oral Δ8-THCV in MCT oil, Median (Range)
[11] = oral, 12.5 mg, 12.5 mg Δ8-THCV dose, Mean (SD, %CV)
[12] = oral, 12.5 mg, 12.5 mg Δ8-THCV dose, Median (IQ Range)
[13] = oral, 25 mg, 25 mg Δ8-THCV dose, Mean (SD, %CV)
[14] = oral, 25 mg, 25 mg Δ8-THCV dose, Median (IQ Range)
[15] = oral, 50 mg, 50 mg Δ8-THCV dose, Mean (SD, %CV)
[16] = oral, 50 mg, 50 mg Δ8-THCV dose, Median (IQ Range)
[17] = oral, 100 mg, 100 mg Δ8-THCV dose, Mean (SD, %CV)
[18] = oral, 100 mg, 100 mg Δ8-THCV dose, Median (IQ Range)
[19] = oral, 200 mg, 200 mg Δ8-THCV dose, Mean (SD, %CV)
[20] = oral, 200 mg, 200 mg Δ8-THCV dose, Median (IQ Range)
[21] = po, 12.5 mg, 12.5 mg single oral Δ8-THCV in MCT oil, Mean (±SD)
[22] = po, 12.5 mg, 12.5 mg single oral Δ8-THCV in MCT oil, Median (Range)
[23] = po, 25 mg, 25 mg single oral Δ8-THCV in MCT oil, Mean (±SD)
[24] = po, 25 mg, 25 mg single oral Δ8-THCV in MCT oil, Median (Range)
[25] = po, 50 mg, 50 mg single oral Δ8-THCV in MCT oil, Mean (±SD)
[26] = po, 50 mg, 50 mg single oral Δ8-THCV in MCT oil, Median (Range)
[27] = po, 100 mg, 100 mg single oral Δ8-THCV in MCT oil, Mean (±SD)
[28] = po, 100 mg, 100 mg single oral Δ8-THCV in MCT oil, Median (Range)
[29] = po, 200 mg, 200 mg single oral Δ8-THCV in MCT oil, Mean (±SD)
[30] = po, 200 mg, 200 mg single oral Δ8-THCV in MCT oil, Median (Range)

Structure (SMILES): CCCc1cc(O)c2c(c1)OC(C)(C)[C@@H]1CCC(C(=O)O)=C[C@@H]21 [Δ9-THCV-COOH, 11-nor-9-carboxy-Δ9-THCV]
- Clast (last quantifiable concentration) [1]: 1.9 (±0.8)
- tlast (time to last quantifiable concentration) [1]: 6.8 (±1.7)
- Clast (last quantifiable concentration) [2]: 1.7 (1.1–3.3)
- tlast (time to last quantifiable concentration) [2]: 8 (4–8)
- Clast (last quantifiable concentration) [3]: 2.6 (±1)
- tlast (time to last quantifiable concentration) [3]: 7.6 (±1.2)
- Clast (last quantifiable concentration) [4]: 2.4 (1.3–4.4)
- tlast (time to last quantifiable concentration) [4]: 8 (4–8)
- Clast (last quantifiable concentration) [5]: 5.4 (±1.9)
- tlast (time to last quantifiable concentration) [5]: 8 (±0)
- Clast (last quantifiable concentration) [6]: 5.2 (2.4–8.5)
- tlast (time to last quantifiable concentration) [6]: 8 (8–8)
- Clast (last quantifiable concentration) [7]: 10.8 (±3.7)
- tlast (time to last quantifiable concentration) [7]: 8 (±0)
- Clast (last quantifiable concentration) [8]: 10.5 (6.2–16.1)
- tlast (time to last quantifiable concentration) [8]: 8 (8–8)
- Clast (last quantifiable concentration) [9]: 29.2 (±16.1)
- tlast (time to last quantifiable concentration) [9]: 8 (±0)
- Clast (last quantifiable concentration) [10]: 26.3 (10.9–63.8)
- tlast (time to last quantifiable concentration) [10]: 8 (8–8)
- plasma concentration (12.5 mg Δ8-THCV dose, Mean (SD, %CV)): 0 (±0, --) ng/mL
- plasma concentration (12.5 mg Δ8-THCV dose, Median (IQ Range)): 0 (0–0) ng/mL
- plasma concentration (25 mg Δ8-THCV dose, Mean (SD, %CV)): 0 (±0, --) ng/mL
- plasma concentration (25 mg Δ8-THCV dose, Median (IQ Range)): 0 (0–0) ng/mL
- plasma concentration (50 mg Δ8-THCV dose, Mean (SD, %CV)): 0 (±0, --) ng/mL
- plasma concentration (50 mg Δ8-THCV dose, Median (IQ Range)): 0 (0–0) ng/mL
- plasma concentration (100 mg Δ8-THCV dose, Mean (SD, %CV)): 0 (±0, --) ng/mL
- plasma concentration (100 mg Δ8-THCV dose, Median (IQ Range)): 0 (0–0) ng/mL
- plasma concentration (200 mg Δ8-THCV dose, Mean (SD, %CV)): 0 (±0, --) ng/mL
- plasma concentration (200 mg Δ8-THCV dose, Median (IQ Range)): 0 (0–0) ng/mL
- concentration at 0.5 h [11]: 0 ng/mL
- concentration at 0.5 h [12]: 0 ng/mL
- concentration at 1 h [11]: 0.1 ng/mL
- concentration at 1 h [12]: 0 ng/mL
- concentration at 2 h [11]: 0.5 ng/mL
- concentration at 2 h [12]: 0 ng/mL
- concentration at 4 h [11]: 1.9 ng/mL
- concentration at 4 h [12]: 1.8 ng/mL
- concentration at 6 h [11]: 1.5 ng/mL
- concentration at 6 h [12]: 1.3 ng/mL
- concentration at 8 h [11]: 1.2 ng/mL
- concentration at 8 h [12]: 1.4 ng/mL
- concentration at 0.5 h [13]: 0 ng/mL
- concentration at 0.5 h [14]: 0 ng/mL
- concentration at 1 h [13]: 0.7 ng/mL
- concentration at 1 h [14]: 0 ng/mL
- concentration at 2 h [13]: 1.6 ng/mL
- concentration at 2 h [14]: 1.7 ng/mL
- concentration at 4 h [13]: 3.7 ng/mL
- concentration at 4 h [14]: 3.6 ng/mL
- concentration at 6 h [13]: 3 ng/mL
- concentration at 6 h [14]: 2.4 ng/mL
- concentration at 8 h [13]: 2.3 ng/mL
- concentration at 8 h [14]: 2.3 ng/mL
- concentration at 0.5 h [15]: 0 ng/mL
- concentration at 0.5 h [16]: 0 ng/mL
- concentration at 1 h [15]: 0.6 ng/mL
- concentration at 1 h [16]: 0 ng/mL
- concentration at 2 h [15]: 2.3 ng/mL
- concentration at 2 h [16]: 0 ng/mL
- concentration at 4 h [15]: 5.4 ng/mL
- concentration at 4 h [16]: 5 ng/mL
- concentration at 6 h [15]: 6.7 ng/mL
- concentration at 6 h [16]: 5.9 ng/mL
- concentration at 8 h [15]: 5.4 ng/mL
- concentration at 8 h [16]: 5.2 ng/mL
- concentration at 0.5 h [17]: 0.3 ng/mL
- concentration at 0.5 h [18]: 0 ng/mL
- concentration at 1 h [17]: 5.8 ng/mL
- concentration at 1 h [18]: 1.9 ng/mL
- concentration at 2 h [17]: 9.2 ng/mL
- concentration at 2 h [18]: 8.7 ng/mL
- concentration at 4 h [17]: 16.1 ng/mL
- concentration at 4 h [18]: 16 ng/mL
- concentration at 6 h [17]: 15.6 ng/mL
- concentration at 6 h [18]: 17.5 ng/mL
- concentration at 8 h [17]: 10.8 ng/mL
- concentration at 8 h [18]: 10.5 ng/mL
- concentration at 0.5 h [19]: 0.1 ng/mL
- concentration at 0.5 h [20]: 0 ng/mL
- concentration at 1 h [19]: 4.9 ng/mL
- concentration at 1 h [20]: 2.7 ng/mL
- concentration at 2 h [19]: 19.1 ng/mL
- concentration at 2 h [20]: 9.4 ng/mL
- concentration at 4 h [19]: 37.1 ng/mL
- concentration at 4 h [20]: 40 ng/mL
- concentration at 6 h [19]: 32.3 ng/mL
- concentration at 6 h [20]: 28.5 ng/mL
- concentration at 8 h [19]: 29.2 ng/mL
- concentration at 8 h [20]: 26.3 ng/mL
- Tmax (oral, present study, MCT oil formulation, as compared in discussion): 5 h
- AUC(0-t) [21]: 7.9 ng·h/mL
- Cmax [21]: 2.7 ng/mL
- AUC(0-t) [22]: 5.6 ng·h/mL
- Cmax [22]: 2.8 ng/mL
- MRT [21]: 5.1 h
- Tmax [21]: 5.1 h
- MRT [22]: 5.3 h
- Tmax [22]: 4 h
- AUC(0-t) [23]: 18.3 ng·h/mL
- Cmax [23]: 4.2 ng/mL
- AUC(0-t) [24]: 19.6 ng·h/mL
- Cmax [24]: 4.4 ng/mL
- MRT [23]: 4.8 h
- Tmax [23]: 4.6 h
- MRT [24]: 4.6 h
- Tmax [24]: 4 h
- AUC(0-t) [25]: 33.4 ng·h/mL
- Cmax [25]: 8.8 ng/mL
- AUC(0-t) [26]: 30.8 ng·h/mL
- Cmax [26]: 7.7 ng/mL
- MRT [25]: 5.5 h
- Tmax [25]: 5.1 h
- MRT [26]: 5.5 h
- Tmax [26]: 6 h
- AUC(0-t) [27]: 92.5 ng·h/mL
- Cmax [27]: 22.5 ng/mL
- AUC(0-t) [28]: 86.5 ng·h/mL
- Cmax [28]: 20.6 ng/mL
- MRT [27]: 4.9 h
- Tmax [27]: 4.5 h
- MRT [28]: 4.6 h
- Tmax [28]: 4 h
- AUC(0-t) [29]: 201 ng·h/mL
- Cmax [29]: 50.3 ng/mL
- AUC(0-t) [30]: 190 ng·h/mL
- Cmax [30]: 48.2 ng/mL
- MRT [29]: 5.1 h
- Tmax [29]: 5.3 h
- MRT [30]: 5.2 h
- Tmax [30]: 6 h
- number of positive plasma samples (of 504 plasma samples from 15 participants after oral Δ8-THCV): 260
- concentration in representative plasma sample (one subject after oral Δ8-THCV in MCT oil, Figure A1): 33.2 ng/mL

From publication PMC11676667, “Pharmacokinetics of Oral Cannabinoid Δ8-Tetrahydrocannabivarin and Its Main Metabolites in Healthy Participants” (Pharmaceuticals, 2024)
